The record followed here is patent US20160297763A1, “Heteroaryl hydroxamic acid derivatives and their use in the treatment, amelioration or prevention of a viral disease” (priority 2011, published 2016).

Like-named read-outs stand apart in the source and are kept apart here.

The subject of assay [1] is influenza A virus A/Aichi/2/68 (H3N2). The assay can be described thus: Cytopathic effect (CPE) assay H3N2. The conditions noted are these: Influenza A virus; for IC50: H3N2, read-out: CPE H3N2 IC50; for inhibition at 20 µM: H3N2, activity conc 20 (μM per method); for inhibition at 2 µM: H3N2, activity conc 2 (μM per method); for inhibition at 10 µM: H3N2, activity conc 10 (μM per method). Type of assay: cell-based, influenza A virus (H3N2) on MDCK cells. The procedure, abridged: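 MDCK cells infected with A/Aichi/2/68 (H3N2) at MOI 0.05 in trypsin-containing medium, compound (generally 25 μM and 250 μM, 1% DMSO) added together with virus; 48 hrs at 37° C. Viability by ATP luminescence; % CPE reduction = infected-treated minus infected-untreated RLU, normalized to uninfected-treated viability.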
(In general: Damage to the host cells serves as the signal in cytopathic effect assays.)

Assay [2] has as its target PA-Nter (Influenza A virus, UniProt P31343). As to the kind of experiment: Biacore PA-Nter binding. The conditions noted are these: activity conc 50. Background: SPR reads the build-up and loss of mass on a sensor chip optically.
The target in assay [3] is PB2 cap binding domain (CBD) (Influenza A virus, UniProt Q9Q0V1). As to the kind of experiment: biochemical. More on the design: species or system avian H5N1 influenza virus.
Chain of PB2 cap binding domain (CBD) (Q9Q0V1 318-483 limits assumed): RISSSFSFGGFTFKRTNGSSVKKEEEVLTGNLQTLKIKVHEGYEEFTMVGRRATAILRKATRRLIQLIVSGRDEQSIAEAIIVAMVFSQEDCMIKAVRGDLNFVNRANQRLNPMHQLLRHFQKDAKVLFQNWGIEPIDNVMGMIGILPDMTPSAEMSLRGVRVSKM
Assay [4] is described as follows: ALPHA screen.
[5] abbreviates: H3N2, activity conc 5 (μM per method), read-out: CPE H3N2 reduction (%).
Setting [6] is: read-out: CPE H3N2 reduction (%).
Where [7] appears, read: H3N2, activity conc 50 (μM per method), read-out: CPE H3N2 reduction (%).
[8] abbreviates: H3N2, read-out: CPE H3N2 reduction (%), activity conc 50 (μM per method).

For orientation: IC50 means the concentration that inhibits the measured activity by half. One may read the Kd as the free concentration of one partner at which half of the binding sites on the other are occupied at equilibrium, for simple one-to-one binding. Higher therefore signals weaker binding. For `Cc1c(-c2ccccc2)sc2nc(N)[nH]c(=O)c12` [SAV-7475], the inhibition at 5 µM in assay [1] (setting [5]) turned out to be 8.9%. Also, the 50% inhibitory concentration (IC50) in assay [1] was 21 µM. In addition, the “Biacore PA-Nter Binding (RU)” value in assay [2] is 13.16 RU. The same compound had a Kd in assay [3] of 4.6 µM.

As for `CC(c1ccccc1)c1cc2c(=O)[nH]c(N)nc2s1` (stereo not shown) [SAV-7604], the inhibition at 20 µM in assay [1] (setting [6]) is -4.7%. In assay [3], this compound yielded a Kd of 6.4 µM.

Consider `CC1=C(c2cccc(F)c2)SC2N=C(N)NC(=O)C12` (stereo not shown) [SAV-7606], for which the inhibition at 5 µM in assay [1] (setting [5]) is 21.8%. In addition, the Kd in assay [3] was 8 µM.

With `Cc1cccc(-c2sc3nc(N)[nH]c(=O)c3c2C)c1` [SAV-7607], the inhibition at 2 µM in assay [1] (setting [6]) is -0.4%. This compound showed a Kd in assay [3] of 5.4 µM.

In the case of `Cc1c(-c2cnccn2)sc2nc(N)[nH]c(=O)c12` [SAV-7608], in assay [1] (setting [6]), the inhibition at 10 µM came out at 3.8%. In assay [3], this compound returned a Kd of 5.7 µM.

The EC50 is the concentration at which the effect is half-maximal. Take `Cc1c(-c2ccc(F)cc2F)sc2nc(N)[nH]c(=O)c12` [SAV-7610]: the inhibition at 2 µM in assay [1] (setting [6]) is -1.6%. The response in assay [4] was half-maximal at 0.62 µM (EC50). This compound returned a Kd in assay [3] of 3.8 µM.

Turning to `Cc1c(-c2ccc(F)c(C#N)c2)sc2nc(N)[nH]c(=O)c12` [SAV-7611], the inhibition at 2 µM in assay [1] (setting [6]) is -1%. The compound also gave a Kd in assay [3] of 1.1 µM.

With `Cc1c(-c2ccc(F)c(C(F)(F)F)c2)sc2nc(N)[nH]c(=O)c12` [SAV-7613], the inhibition at 50 µM in assay [1] (setting [7]) came to 2.5%. The same compound showed a Kd in assay [3] of 1.5 µM.

For the compound `Cc1c(C2=CCNCC2)sc2nc(N)[nH]c(=O)c12` [SAV-7614], in assay [1] (setting [7]), the inhibition at 50 µM was 10.6%. The Kd in assay [3] is 190 µM.

Consider `Cc1c(-c2cc(C#N)ccc2F)sc2nc(N)[nH]c(=O)c12` [SAV-7615], for which the inhibition at 20 µM in assay [1] (setting [6]) stood at 59.2%. In addition, the IC50 in assay [1] came to 12 µM. For the same compound, in assay [3], the Kd is 3 µM.

As to `Cc1c(-c2cccc(Cl)c2F)sc2nc(N)[nH]c(=O)c12` [SAV-7616], the inhibition at 10 µM in assay [1] (setting [6]) was determined as 68.7%. For the same compound, the IC50 in assay [1] is 34 µM. In assay [3], the Kd was found to be 3.1 µM.

Regarding `Cc1c(-c2cc(C#N)ccc2Cl)sc2nc(N)[nH]c(=O)c12` [SAV-7617], in assay [1] (setting [6]), the inhibition at 2 µM turned out to be 5.1%. Moreover, the Kd in assay [3] was found to be 2 µM.

On to `Cc1c(-c2ccc(Cl)cc2F)sc2nc(N)[nH]c(=O)c12` [SAV-7618], for which the inhibition at 50 µM in assay [1] (setting [7]) came to 77.4%. In addition, the IC50 in assay [1] stood at 43 µM. The same compound yielded a Kd in assay [3] of 0.65 µM.

As to `COc1cc(-c2sc3nc(N)[nH]c(=O)c3c2C)ccc1Cl` [SAV-7619], the inhibition at 2 µM in assay [1] (setting [6]) came to 3.4%. In addition, in assay [3], binding was put at a Kd of 1.1 µM.

`Cc1c(-c2ccc(F)nc2F)sc2nc(N)[nH]c(=O)c12` [SAV-7621]: in assay [1] (H3N2, read-out: CPE H3N2 reduction (%), activity conc 25 (μM per method)), the inhibition at 25 µM was 14.3%. The compound also displayed a Kd in assay [3] of 70 µM.

Turning to `Cc1c(-c2ccc(Cl)c(O)c2)sc2nc(N)[nH]c(=O)c12` [SAV-7622], the inhibition at 2 µM in assay [1] (setting [6]) was 6.2%. In assay [3], the Kd was determined as 2.4 µM.

For the compound `Cc1c(-c2ccc(Cl)c(F)c2)sc2nc(N)[nH]c(=O)c12` [SAV-7624], in assay [1], the IC50 stood at 64 µM. In assay [3], this compound registered a Kd of 0.2 µM.

For the compound `Cc1c(-c2ccnc(C(F)(F)F)c2)sc2nc(N)[nH]c(=O)c12` [SAV-7625], the inhibition at 2.5 µM in assay [1] (H3N2, activity conc 2.5 (μM per method), read-out: CPE H3N2 reduction (%)) was -4%. For the same compound, the affinity in assay [3], expressed as Kd, was 12 µM.

On to `Cc1c(-c2ccc(Cl)c(C(=O)N(C)C)c2)sc2nc(N)[nH]c(=O)c12` [SAV-7626], for which, in assay [1] (H3N2, activity conc 25 (μM per method), read-out: CPE H3N2 reduction (%)), the inhibition at 25 µM is -4.6%. For the same compound, the Kd in assay [3] turned out to be 6.4 µM.

`Cc1c(-c2cccc(C#N)c2F)sc2nc(N)[nH]c(=O)c12` [SAV-7627]: the inhibition at 50 µM in assay [1] (setting [7]) stood at 71.2%. Besides, the IC50 in assay [1] was found to be 10 µM. Also, in assay [3], the Kd came to 4.2 µM.

As to `Cc1c(-c2ccc(F)c(C#N)c2F)sc2nc(N)[nH]c(=O)c12` [SAV-7628], the inhibition at 50 µM in assay [1] (setting [7]) was found to be 84.3%. Moreover, the IC50 in assay [1] was 43 µM. The same compound displayed a Kd in assay [3] of 7.3 µM.

In the case of `Cc1c(-c2cccc(CN(C)C)c2)sc2nc(N)[nH]c(=O)c12` [SAV-7629], in assay [1] (setting [7]), the inhibition at 50 µM amounted to 38.3%. The concentration for half-maximal inhibition (IC50) in assay [1] was found to be 35 µM. For the same compound, the Kd in assay [3] stood at 61 µM.

With `Cc1c(-c2cc(CN(C)C)ccc2F)sc2nc(N)[nH]c(=O)c12` [SAV-7630], the inhibition at 50 µM in assay [1] (setting [8]) was 23.2%. In assay [3], this compound showed a Kd of 57 µM.

With `Nc1nc2sc(-c3ccccc3)c(Br)c2c(=O)[nH]1` [SAV-7631], in assay [1] (H3N2, read-out: CPE H3N2 reduction (%), activity conc 5 (μM per method)), the inhibition at 5 µM was 4%. This compound showed a Kd in assay [3] of 0.66 µM.

Regarding `Cc1c(-c2ccc(Cl)nc2)sc2nc(N)[nH]c(=O)c12` [SAV-7632], the inhibition at 50 µM in assay [1] (setting [8]) was 53%. In assay [3], this compound showed a Kd of 0.75 µM.

Regarding `Cc1c(-c2ccnc(Cl)c2F)sc2nc(N)[nH]c(=O)c12` [SAV-7633], the inhibition at 50 µM in assay [1] (setting [7]) was found to be 63.1%. Also, the IC50 in assay [1] came to 39 µM. In assay [3], this compound had a Kd of 1.2 µM.

Take `Cc1c(-c2c(F)ccc(Cl)c2F)sc2nc(N)[nH]c(=O)c12` [SAV-7637]: the inhibition at 5 µM in assay [1] (setting [5]) was 1.5%. The IC50 in assay [1] amounted to 18 µM. This compound also registered a Kd in assay [3] of 1.1 µM.

For the compound `Nc1nc2sc(-c3ccccc3)c(Cl)c2c(=O)[nH]1` [SAV-7639], the inhibition at 50 µM in assay [1] (setting [8]) turned out to be 59.9%. Also, the affinity in assay [3], expressed as Kd, was 1.8 µM.
